Reference: publication doi:10.1101/2020.06.11.145995v1 (biorxiv, 2020)
Where two headings read alike, the source gives them in different places.

How the values were obtained:
Test in all cases: biochemical
AXL = AXL (Homo sapiens, UniProt P30530)
EGFR(L858R) = EGFR(L858R) (Homo sapiens, UniProt P00533, L858R)
MAP4K3 = MAP4K3 (Homo sapiens, UniProt Q8IVH8)
MLCK = MLCK (Homo sapiens, UniProt Q32MK0)
FLT3(ITD) = FLT3(ITD) (Homo sapiens, UniProt P36888, ITD)
AKT2 = AKT2 (Homo sapiens, UniProt P31751)
CAMK2G = CAMK2G (Homo sapiens, UniProt Q13555)
MARK3 = MARK3 (Homo sapiens, UniProt P27448)
CAMKK1 = CAMKK1 (Homo sapiens, UniProt Q8N5S9)
BTK = BTK (Homo sapiens, UniProt Q06187)
Sequence of BTK (Q06187 whole entry): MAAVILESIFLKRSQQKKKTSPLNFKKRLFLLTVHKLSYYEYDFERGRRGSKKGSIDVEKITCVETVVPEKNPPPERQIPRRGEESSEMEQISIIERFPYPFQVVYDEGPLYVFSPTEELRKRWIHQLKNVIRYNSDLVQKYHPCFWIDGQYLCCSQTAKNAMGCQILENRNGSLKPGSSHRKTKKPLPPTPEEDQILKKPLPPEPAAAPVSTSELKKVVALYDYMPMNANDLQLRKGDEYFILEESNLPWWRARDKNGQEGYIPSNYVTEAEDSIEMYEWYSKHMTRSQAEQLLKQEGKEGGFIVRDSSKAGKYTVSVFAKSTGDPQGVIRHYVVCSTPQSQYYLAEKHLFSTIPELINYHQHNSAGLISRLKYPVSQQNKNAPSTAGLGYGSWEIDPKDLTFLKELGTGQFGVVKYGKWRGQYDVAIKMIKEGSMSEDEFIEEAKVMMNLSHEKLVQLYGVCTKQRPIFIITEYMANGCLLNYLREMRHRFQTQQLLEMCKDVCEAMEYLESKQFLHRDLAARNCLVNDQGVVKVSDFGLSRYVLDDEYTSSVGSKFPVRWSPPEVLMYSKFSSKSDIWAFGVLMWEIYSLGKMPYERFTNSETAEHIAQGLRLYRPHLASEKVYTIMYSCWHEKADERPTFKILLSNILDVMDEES

MLK3 = MLK3 (Homo sapiens, UniProt Q16584)
Sequence of MLK3 (Q16584 whole entry): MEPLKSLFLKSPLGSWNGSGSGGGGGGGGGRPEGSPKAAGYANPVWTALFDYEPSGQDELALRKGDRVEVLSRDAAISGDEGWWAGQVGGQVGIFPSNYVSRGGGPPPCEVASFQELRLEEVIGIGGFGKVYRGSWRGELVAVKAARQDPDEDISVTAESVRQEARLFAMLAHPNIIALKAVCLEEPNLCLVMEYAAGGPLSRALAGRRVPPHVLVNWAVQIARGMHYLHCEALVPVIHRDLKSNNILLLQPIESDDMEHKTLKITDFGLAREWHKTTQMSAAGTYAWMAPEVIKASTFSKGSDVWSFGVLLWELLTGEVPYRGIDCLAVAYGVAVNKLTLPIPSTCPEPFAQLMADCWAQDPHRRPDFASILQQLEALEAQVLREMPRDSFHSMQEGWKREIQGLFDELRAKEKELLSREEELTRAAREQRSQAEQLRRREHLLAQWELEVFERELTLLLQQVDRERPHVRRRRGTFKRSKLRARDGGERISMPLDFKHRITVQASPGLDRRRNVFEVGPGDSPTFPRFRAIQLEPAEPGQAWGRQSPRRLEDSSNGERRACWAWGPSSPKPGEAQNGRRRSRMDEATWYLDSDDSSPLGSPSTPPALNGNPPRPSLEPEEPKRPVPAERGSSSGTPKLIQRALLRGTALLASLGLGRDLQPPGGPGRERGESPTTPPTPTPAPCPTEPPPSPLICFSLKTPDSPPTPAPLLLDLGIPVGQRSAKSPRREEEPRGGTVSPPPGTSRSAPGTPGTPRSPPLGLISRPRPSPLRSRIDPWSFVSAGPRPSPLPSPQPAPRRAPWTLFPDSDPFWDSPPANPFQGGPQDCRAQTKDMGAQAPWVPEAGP

MRCKA = MRCKA (Homo sapiens, UniProt Q5VT25)
CLK1 = CLK1 (Homo sapiens, UniProt P49759)
BMX = BMX (Homo sapiens, UniProt P51813)
MAP3K2 = MAP3K2 (Homo sapiens, UniProt Q9Y2U5)
DDR2 = DDR2 (Homo sapiens, UniProt Q16832)
ACVRL1 = ACVRL1 (Homo sapiens, UniProt P37023)
CDK4-cyclinD1 = CDK4-cyclinD1 (Homo sapiens, UniProt P11802)
BRSK2 = BRSK2 (Homo sapiens, UniProt Q8IWQ3)
CDK8 = CDK8 (Homo sapiens, UniProt P49336)
Sequence of CDK8 (P49336 whole entry): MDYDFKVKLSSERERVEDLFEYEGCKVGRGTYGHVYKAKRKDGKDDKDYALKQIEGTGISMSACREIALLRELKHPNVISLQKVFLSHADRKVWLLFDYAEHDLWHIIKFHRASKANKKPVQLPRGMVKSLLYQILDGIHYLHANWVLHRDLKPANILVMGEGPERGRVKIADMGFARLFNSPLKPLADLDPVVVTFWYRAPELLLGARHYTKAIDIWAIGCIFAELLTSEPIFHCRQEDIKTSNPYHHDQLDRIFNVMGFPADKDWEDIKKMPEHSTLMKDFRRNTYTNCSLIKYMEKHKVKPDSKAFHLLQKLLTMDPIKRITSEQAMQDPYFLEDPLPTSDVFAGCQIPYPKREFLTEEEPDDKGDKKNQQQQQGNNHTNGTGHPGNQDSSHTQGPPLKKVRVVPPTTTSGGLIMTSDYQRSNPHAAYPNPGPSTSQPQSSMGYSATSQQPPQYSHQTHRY

MARK4 = MARK4 (Homo sapiens, UniProt Q96L34)
FGFR3 = FGFR3 (Homo sapiens, UniProt P22607)
ABL2 = ABL2 (Homo sapiens, UniProt P42684)
CSNK1A1 = CSNK1A1 (Homo sapiens, UniProt P48729)
MELK = MELK (Homo sapiens, UniProt Q14680)
Sequence of MELK (Q14680 whole entry): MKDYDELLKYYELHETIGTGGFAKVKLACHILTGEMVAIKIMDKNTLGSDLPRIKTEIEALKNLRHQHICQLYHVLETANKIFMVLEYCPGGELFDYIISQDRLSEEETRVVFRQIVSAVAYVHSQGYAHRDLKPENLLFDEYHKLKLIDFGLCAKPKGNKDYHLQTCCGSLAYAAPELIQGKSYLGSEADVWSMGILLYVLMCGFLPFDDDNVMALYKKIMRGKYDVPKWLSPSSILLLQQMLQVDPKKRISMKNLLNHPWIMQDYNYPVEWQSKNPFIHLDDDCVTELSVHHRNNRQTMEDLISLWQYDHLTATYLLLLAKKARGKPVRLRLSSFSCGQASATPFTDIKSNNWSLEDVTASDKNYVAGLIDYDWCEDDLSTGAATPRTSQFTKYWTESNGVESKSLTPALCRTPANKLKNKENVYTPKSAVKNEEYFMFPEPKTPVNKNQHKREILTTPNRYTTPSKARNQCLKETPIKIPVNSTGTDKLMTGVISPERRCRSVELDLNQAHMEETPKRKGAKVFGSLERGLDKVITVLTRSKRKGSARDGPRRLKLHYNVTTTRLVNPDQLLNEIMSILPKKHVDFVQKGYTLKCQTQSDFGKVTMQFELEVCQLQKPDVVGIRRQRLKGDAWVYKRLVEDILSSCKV

ITK = ITK (Homo sapiens, UniProt Q08881)
MST1 = MST1 (Homo sapiens, UniProt Q13043)
GRK7 = GRK7 (Homo sapiens, UniProt Q8WTQ7)
LZK = LZK (Homo sapiens, UniProt O43283)
Sequence of LZK (O43283 whole entry): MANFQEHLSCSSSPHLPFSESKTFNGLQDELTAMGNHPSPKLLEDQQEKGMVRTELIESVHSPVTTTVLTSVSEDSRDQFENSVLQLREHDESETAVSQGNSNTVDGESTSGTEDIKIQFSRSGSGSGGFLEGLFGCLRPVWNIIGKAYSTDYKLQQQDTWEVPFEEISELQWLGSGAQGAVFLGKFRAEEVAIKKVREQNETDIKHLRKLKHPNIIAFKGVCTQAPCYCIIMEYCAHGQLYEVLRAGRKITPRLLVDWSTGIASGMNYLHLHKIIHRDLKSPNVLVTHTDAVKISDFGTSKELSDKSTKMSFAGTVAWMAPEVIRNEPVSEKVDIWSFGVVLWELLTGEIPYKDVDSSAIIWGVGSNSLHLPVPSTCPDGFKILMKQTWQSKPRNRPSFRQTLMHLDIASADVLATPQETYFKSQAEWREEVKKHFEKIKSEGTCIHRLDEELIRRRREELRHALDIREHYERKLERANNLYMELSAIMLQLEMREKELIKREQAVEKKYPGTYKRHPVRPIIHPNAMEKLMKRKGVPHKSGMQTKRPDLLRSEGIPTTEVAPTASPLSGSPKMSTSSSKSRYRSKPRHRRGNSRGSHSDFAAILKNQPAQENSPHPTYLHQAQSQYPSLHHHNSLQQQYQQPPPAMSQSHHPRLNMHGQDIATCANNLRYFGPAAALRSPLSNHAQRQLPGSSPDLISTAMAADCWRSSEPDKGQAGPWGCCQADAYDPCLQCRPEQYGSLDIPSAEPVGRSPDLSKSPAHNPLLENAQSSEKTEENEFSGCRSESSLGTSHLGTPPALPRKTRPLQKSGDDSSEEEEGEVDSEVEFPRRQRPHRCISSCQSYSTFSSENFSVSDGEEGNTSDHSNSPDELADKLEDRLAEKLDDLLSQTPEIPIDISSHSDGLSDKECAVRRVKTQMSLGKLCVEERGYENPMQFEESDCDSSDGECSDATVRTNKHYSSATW

MAPKAPK2 = MAPKAPK2 (Homo sapiens, UniProt P49137)
[1] = read-out: HYJ-2-002-1 (1uM) % control
[2] = read-out: CPT-1-70-1 (1uM) % control

Sequence of EGFR(L858R) (P00533 whole entry L858R): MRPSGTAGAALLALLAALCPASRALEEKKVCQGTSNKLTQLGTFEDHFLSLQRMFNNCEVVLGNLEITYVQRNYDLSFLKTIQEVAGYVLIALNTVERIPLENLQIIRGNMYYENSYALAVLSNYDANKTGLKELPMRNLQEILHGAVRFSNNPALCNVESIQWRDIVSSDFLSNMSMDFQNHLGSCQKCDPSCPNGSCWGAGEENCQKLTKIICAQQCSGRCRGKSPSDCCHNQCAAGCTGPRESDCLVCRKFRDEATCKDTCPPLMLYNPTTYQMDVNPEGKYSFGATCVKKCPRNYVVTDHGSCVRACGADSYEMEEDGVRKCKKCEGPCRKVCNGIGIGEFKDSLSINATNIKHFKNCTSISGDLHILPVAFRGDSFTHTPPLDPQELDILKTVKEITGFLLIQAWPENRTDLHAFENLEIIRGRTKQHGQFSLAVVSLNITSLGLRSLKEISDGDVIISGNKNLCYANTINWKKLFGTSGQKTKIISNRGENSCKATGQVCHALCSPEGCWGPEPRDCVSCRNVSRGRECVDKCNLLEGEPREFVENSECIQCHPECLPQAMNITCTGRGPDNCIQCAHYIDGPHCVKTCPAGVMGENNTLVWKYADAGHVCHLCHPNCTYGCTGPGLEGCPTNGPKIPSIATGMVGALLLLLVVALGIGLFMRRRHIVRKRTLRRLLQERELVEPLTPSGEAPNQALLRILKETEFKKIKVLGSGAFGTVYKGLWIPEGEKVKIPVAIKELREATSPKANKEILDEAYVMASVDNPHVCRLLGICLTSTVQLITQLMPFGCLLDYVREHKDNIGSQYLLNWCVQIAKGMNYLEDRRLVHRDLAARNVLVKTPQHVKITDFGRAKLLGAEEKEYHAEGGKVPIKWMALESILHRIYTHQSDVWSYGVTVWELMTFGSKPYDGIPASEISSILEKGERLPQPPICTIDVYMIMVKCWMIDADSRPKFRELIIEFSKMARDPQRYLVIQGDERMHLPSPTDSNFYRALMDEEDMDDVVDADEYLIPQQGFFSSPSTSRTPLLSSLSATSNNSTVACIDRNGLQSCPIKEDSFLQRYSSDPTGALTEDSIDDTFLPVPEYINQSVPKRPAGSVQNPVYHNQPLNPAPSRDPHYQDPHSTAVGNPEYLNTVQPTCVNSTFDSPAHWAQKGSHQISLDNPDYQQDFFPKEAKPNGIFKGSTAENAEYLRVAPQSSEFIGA

Compound `CCN1CCN(Cc2ccc(NC(=O)c3ccc(C)c(CCc4cnc5[nH]ccc5c4OC)c3)cc2C(F)(F)F)CC1` [HYJ-2-002-1] has a remaining activity at 1 µM (AXL; [1]) of 21%, a remaining activity at 1 µM (EGFR(L858R); [1]) of 3.2% and a remaining activity at 1 µM (MAP4K3; [1]) of 40%. It also gave a remaining activity at 1 µM (MLCK; [1]) of 89%, a remaining activity at 1 µM (FLT3(ITD); [1]) of 2.3% and a remaining activity at 1 µM (AKT2; [1]) of 95%. It also gave a remaining activity at 1 µM (CAMK2G; [1]) of 100%, a remaining activity at 1 µM (MARK3; [1]) of 100% and a remaining activity at 1 µM (CAMKK1; [1]) of 100%. The remaining activity at 1 µM (BTK; [1]) was 8.1%, the remaining activity at 1 µM (MLK3; [1]) was 53% and the remaining activity at 1 µM (MRCKA; [1]) was 100%. The remaining activity at 1 µM (CLK1; [1]) was 57%, the remaining activity at 1 µM (BMX; [1]) was 8.7% and the remaining activity at 1 µM (MAP3K2; [1]) was 26%. It also gave a remaining activity at 1 µM (DDR2; [1]) of 0.05%, a remaining activity at 1 µM (ACVRL1; [1]) of 100% and a remaining activity at 1 µM (CDK4-cyclinD1; [1]) of 80%. For the same compound, the remaining activity at 1 µM (BRSK2; [1]) was 91%, the remaining activity at 1 µM (CDK8; [1]) was 9.2% and the remaining activity at 1 µM (MARK4; [1]) was 94%. The remaining activity at 1 µM (FGFR3; [1]) was 28%, the remaining activity at 1 µM (ABL2; [1]) was 0% and the remaining activity at 1 µM (CSNK1A1; [1]) was 100%. It also gave a remaining activity at 1 µM (MELK; [1]) of 48%, a remaining activity at 1 µM (ITK; [1]) of 75% and a remaining activity at 1 µM (MST1; [1]) of 89%. The remaining activity at 1 µM (GRK7; [1]) was 100%, the remaining activity at 1 µM (LZK; [1]) was 78% and the remaining activity at 1 µM (MAPKAPK2; [1]) was 100%.
Compound `CN1CCN(c2ccc(Nc3nc(Oc4ccc(NC(=O)CCl)cc4)c4cc[nH]c4n3)cc2)CC1` [CPT1-70-1] has a remaining activity at 1 µM (AXL; [2]) of 4.8%, a remaining activity at 1 µM (EGFR(L858R); [2]) of 22% and a remaining activity at 1 µM (MAP4K3; [2]) of 23%. The remaining activity at 1 µM (MLCK; [2]) was 100%, the remaining activity at 1 µM (FLT3(ITD); [2]) was 1.6% and the remaining activity at 1 µM (AKT2; [2]) was 100%. It also gave a remaining activity at 1 µM (CAMK2G; [2]) of 100%, a remaining activity at 1 µM (MARK3; [2]) of 9.2% and a remaining activity at 1 µM (CAMKK1; [2]) of 84%. For the same compound, the remaining activity at 1 µM (BTK; [2]) was 7%, the remaining activity at 1 µM (MLK3; [2]) was 91% and the remaining activity at 1 µM (MRCKA; [2]) was 100%. It also gave a remaining activity at 1 µM (CLK1; [2]) of 5.8%, a remaining activity at 1 µM (BMX; [2]) of 9.2% and a remaining activity at 1 µM (MAP3K2; [2]) of 37%. It also gave a remaining activity at 1 µM (DDR2; [2]) of 100%, a remaining activity at 1 µM (ACVRL1; [2]) of 100% and a remaining activity at 1 µM (CDK4-cyclinD1; [2]) of 81%. It also gave a remaining activity at 1 µM (BRSK2; [2]) of 97%, a remaining activity at 1 µM (CDK8; [2]) of 100% and a remaining activity at 1 µM (MARK4; [2]) of 1.8%. For the same compound, the remaining activity at 1 µM (FGFR3; [2]) was 35%, the remaining activity at 1 µM (ABL2; [2]) was 60% and the remaining activity at 1 µM (CSNK1A1; [2]) was 55%. The remaining activity at 1 µM (MELK; [2]) was 16%, the remaining activity at 1 µM (ITK; [2]) was 0.85% and the remaining activity at 1 µM (MST1; [2]) was 100%. It also gave a remaining activity at 1 µM (GRK7; [2]) of 100%, a remaining activity at 1 µM (LZK; [2]) of 73% and a remaining activity at 1 µM (MAPKAPK2; [2]) of 100%.
